Measured values: ChEMBL document CHEMBL5096153, “Spirocyclic Scaffolds in Medicinal Chemistry” (J Med Chem, 2021)

System: Influenza A virus
Experiment: Antiviral activity against drug-resistant Influenza A virus A/M2-V27A mutant assessed as viral growth inhibition
Assay type: functional, organism-based

Row | Compound | IC50 [µM]
1 | NC1CC[Si]2(CCCC2)CC1 | 96.3
2 | NC1CCC2(CCCC2)CC1 | 319
